From patent US11066396B2 (priority 2016, dated 2021)

Key:
HDAC1 = HDAC1 (Homo sapiens (Human), UniProt Q13547); details: read-out: HDAC1 IC50
HDAC8 = HDAC8 (Homo sapiens (Human), UniProt Q9BY41); details: read-out: HDAC8 IC50
Sequence of HDAC8 (Q9BY41 whole entry): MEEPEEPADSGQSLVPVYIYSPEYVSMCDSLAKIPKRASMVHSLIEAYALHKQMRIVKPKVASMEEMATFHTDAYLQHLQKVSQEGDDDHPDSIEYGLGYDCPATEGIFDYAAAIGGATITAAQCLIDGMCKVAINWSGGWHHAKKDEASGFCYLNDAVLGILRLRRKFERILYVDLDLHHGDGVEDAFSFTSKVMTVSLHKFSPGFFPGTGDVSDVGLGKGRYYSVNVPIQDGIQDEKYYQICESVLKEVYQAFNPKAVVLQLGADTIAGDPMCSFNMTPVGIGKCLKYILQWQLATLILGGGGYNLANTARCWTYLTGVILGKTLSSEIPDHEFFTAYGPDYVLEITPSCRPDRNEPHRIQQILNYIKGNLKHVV

Sequence of HDAC1 (Q13547 whole entry): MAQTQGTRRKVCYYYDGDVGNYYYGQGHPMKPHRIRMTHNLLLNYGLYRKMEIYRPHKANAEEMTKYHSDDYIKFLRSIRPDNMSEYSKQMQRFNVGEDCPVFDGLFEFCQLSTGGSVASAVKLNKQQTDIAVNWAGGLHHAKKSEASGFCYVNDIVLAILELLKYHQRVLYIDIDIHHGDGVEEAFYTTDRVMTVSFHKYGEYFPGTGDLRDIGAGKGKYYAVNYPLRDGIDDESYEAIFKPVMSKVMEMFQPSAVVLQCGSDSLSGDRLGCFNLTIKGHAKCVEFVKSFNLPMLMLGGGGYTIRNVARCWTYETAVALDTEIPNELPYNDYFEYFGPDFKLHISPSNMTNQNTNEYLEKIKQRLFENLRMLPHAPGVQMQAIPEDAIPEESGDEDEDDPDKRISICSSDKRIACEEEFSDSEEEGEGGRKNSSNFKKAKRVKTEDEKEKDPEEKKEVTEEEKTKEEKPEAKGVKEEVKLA

Row | SMILES | IC50 (HDAC1) [µM] | IC50 (HDAC8) [µM]
1 | O=C(Cc1cnccn1)N(Cc1ccc(-c2noc(C(F)(F)F)n2)cc1)c1cccc(C(F)(F)F)c1 [Example 94, 2-(pyrazin-2-yl)-N-(4-(5-(trifluoromethyl)-1,2,4-oxadiazol-3-yl)benzyl)-N-(3-(trifluoromethyl)phenyl)acetamide] | 1.4 | 2.3
2 | Cn1ccc(CN(Cc2ccc(-c3noc(C(F)(F)F)n3)cc2)c2cccc(C(F)(F)F)c2)n1 [Example 96, N-((1-methyl-1H-pyrazol-3-yl)methyl)-3-(trifluoromethyl)-N-(4-(5-(trifluoromethyl)-1,2,4-oxadiazol-3-yl)benzyl)aniline] | 2.4 | 30
3 | O=C(Cn1cnc2ccccc21)N(Cc1ccc(-c2noc(C(F)(F)F)n2)cc1)c1cccc(C(F)(F)F)c1 [Example 98, 2-(1H-benzo[d]imidazol-1-yl)-N-(4-(5-(trifluoromethyl)-1,2,4-oxadiazol-3-yl)benzyl)-N-(3-(trifluoromethyl)phenyl)acetamide] | 4.2 | 2.3
4 | Cc1nc2ccc(F)cc2n1Cc1ccc(-c2noc(C(F)(F)F)n2)cc1F [Example 99, 3-(3-fluoro-4-((6-fluoro-2-methyl-1H-benzo[d]imidazol-1-yl)methyl)phenyl)-5-(trifluoromethyl)-1,2,4-oxadiazole] | 1.9 | 5.9
5 | CN(C)c1cccc(COc2cc(-c3noc(C(F)(F)F)n3)ccn2)n1 [Example 101, N,N-dimethyl-6-(((4-(5-(trifluoromethyl)-1,2,4-oxadiazol-3-yl)pyridin-2-yl)oxy)methyl)pyridin-2-amine] | 20 | 17
6 | O=C1CC[C@@H](c2nc3ccccc3o2)N1c1ccc(-c2noc(C(F)(F)F)n2)cc1 [Example 104, (S)-5-(benzo[d]oxazol-2-yl)-1-(4-(5-(trifluoromethyl)-1,2,4-oxadiazol-3-yl)phenyl)pyrrolidin-2-one] | 0.12 | 0.44
7 | Cn1c([C@@H]2CCC(=O)N2c2ccc(-c3noc(C(F)(F)F)n3)cc2F)nc2ccccc21 [Example 107, (S)-1-(2-fluoro-4-(5-(trifluoromethyl)-1,2,4-oxadiazol-3-yl)phenyl)-5-(1-methyl-1H-benzo[d]imidazol-2-yl)pyrrolidin-2-one] | 0.3 | 2.2
8 | CNc1ccccc1NC(=O)[C@@H]1CCC(=O)N1c1ccc(-c2noc(C(F)(F)F)n2)cc1 [Example 109, (S)-N-(2-(methylamino)phenyl)-5-oxo-1-(4-(5-(trifluoromethyl)-1,2,4-oxadiazol-3-yl)phenyl)pyrrolidine-2-carboxamide] | 1 | 2.3
9 | O=C1CC[C@@H](c2nc(-c3cccnc3)no2)N1c1ccc(-c2noc(C(F)(F)F)n2)cc1 [Example 113, (S)-5-(3-(pyridin-3-yl)-1,2,4-oxadiazol-5-yl)-1-(4-(5-(trifluoromethyl)-1,2,4-oxadiazol-3-yl)phenyl)pyrrolidin-2-one] | 0.13 | 0.41
10 | O=C1CC[C@@H](c2nc(-c3ccncc3)no2)N1c1ccc(-c2noc(C(F)(F)F)n2)cc1 [Example 114, (S)-5-(3-(pyridin-4-yl)-1,2,4-oxadiazol-5-yl)-1-(4-(5-(trifluoromethyl)-1,2,4-oxadiazol-3-yl)phenyl)pyrrolidin-2-one] | 0.082 | 0.27
11 | O=C1CCC(c2ccccc2)N1c1ccc(-c2noc(C(F)(F)F)n2)cc1 (stereo not drawn) [Example 115, 5-phenyl-1-(4-(5-(trifluoromethyl)-1,2,4-oxadiazol-3-yl)phenyl)pyrrolidin-2-one] | 1 | 0.92
12 | O=C1CCC(c2ccc(Cl)cc2)N1c1ccc(-c2noc(C(F)(F)F)n2)cc1F (stereo not drawn) [Example 119, 5-(4-chlorophenyl)-1-(2-fluoro-4-(5-(trifluoromethyl)-1,2,4-oxadiazol-3-yl)phenyl)pyrrolidin-2-one] | 0.72 | 1.3
13 | Cc1noc([C@H]2CCCCN2c2cc(F)c(-c3noc(C(F)(F)F)n3)cc2F)n1 [Example 121, (R)-3-(2,5-difluoro-4-(2-(3-methyl-1,2,4-oxadiazol-5-yl)piperidin-1-yl)phenyl)-5-(trifluoromethyl)-1,2,4-oxadiazole] | 26 | 29
14 | Cc1noc([C@@H]2CCC(=O)N2c2ccc(-c3noc(C(F)(F)F)n3)cc2F)n1 [Example 123, (S)-1-(2-fluoro-4-(5-(trifluoromethyl)-1,2,4-oxadiazol-3-yl)phenyl)-5-(3-methyl-1,2,4-oxadiazol-5-yl)pyrrolidin-2-one] | 1 | 5.2
15 | CC(C)(C)OC(=O)[C@@H]1CCC(=O)N1c1ccc(-c2noc(C(F)(F)F)n2)cc1F [Example 125, tert-butyl (S)-1-(2-fluoro-4-(5-(trifluoromethyl)-1,2,4-oxadiazol-3-yl)phenyl)-5-oxopyrrolidine-2-carboxylate] | 0.43 | 6.2
16 | O=C1CCCC(c2ccccc2)N1c1ccc(-c2noc(C(F)(F)F)n2)cn1 (stereo not drawn) [Example 128, 6-phenyl-1-(5-(5-(trifluoromethyl)-1,2,4-oxadiazol-3-yl)pyridin-2-yl)piperidin-2-one] | 2.9 | 5.1
17 | CN1CCN(c2ccc(-c3noc(C(F)(F)F)n3)cn2)[C@@H](c2ccccc2)C1 [Example 134, (S)-3-(6-(4-methyl-2-phenylpiperazin-1-yl)pyridin-3-yl)-5-(trifluoromethyl)-1,2,4-oxadiazole] | 0.36 | 2.1
18 | Cc1cccc(CCOc2cc(-c3noc(C(F)(F)F)n3)ccn2)n1 [Example 139, 3-(2-(2-(6-methylpyridin-2-yl)ethoxy)pyridin-4-yl)-5-(trifluoromethyl)-1,2,4-oxadiazole] | 3.4 | 4.6
19 | FC(F)(F)c1nc(-c2ccc(N3CCOC[C@@H]3c3ccccc3)nc2)no1 [Example 141, (S)-3-phenyl-4-(5-(5-(trifluoromethyl)-1,2,4-oxadiazol-3-yl)pyridin-2-yl)morpholine] | 0.35 | 1.8
20 | FC(F)(F)c1nc(-c2ccc(N3CCOCC3c3cccnc3)nc2)no1 (stereo not drawn) [Example 143, 3-(pyridin-3-yl)-4-(5-(5-(trifluoromethyl)-1,2,4-oxadiazol-3-yl)pyridin-2-yl)morpholine] | 6.2 | 2.8
21 | O=C1NCCN(c2ccc(-c3noc(C(F)(F)F)n3)cn2)C1c1cccc(F)c1 (stereo not drawn) [Example 153, 3-(3-fluorophenyl)-4-(5-(5-(trifluoromethyl)-1,2,4-oxadiazol-3-yl)pyridin-2-yl)piperazin-2-one] | 0.124 | 0.28
22 | O=C1COC[C@@H](c2ccccc2)N1c1ccc(-c2noc(C(F)(F)F)n2)cc1F [Example 161, (R)-4-(2-fluoro-4-(5-(trifluoromethyl)-1,2,4-oxadiazol-3-yl)phenyl)-5-phenylmorpholin-3-one] | 0.39 | 2.1
23 | CN1CC(=O)N(c2ccc(-c3noc(C(F)(F)F)n3)cc2)C(c2ccccc2)C1 (stereo not drawn) [Example 162, 4-methyl-6-phenyl-1-(4-(5-(trifluoromethyl)-1,2,4-oxadiazol-3-yl)phenyl)piperazin-2-one] | 0.85 | 1.4
24 | O=C1COC[C@@H](c2ccccc2)N1c1cnc(-c2noc(C(F)(F)F)n2)cn1 [Example 164, (R)-5-phenyl-4-(5-(5-(trifluoromethyl)-1,2,4-oxadiazol-3-yl)pyrazin-2-yl)morpholin-3-one] | 2.9 | 6.1
